In patent US9290511B2, “Thieno-pyrimidines, useful as potassium channel inhibitors” (XENTION LIMITED, priority 2011, dated 2016) one finds IC50 data, which are given here for 49 compounds.

Some results are limits rather than exact numbers.

The assay deals with T1, Kir3.1/3.4 (Rattus norvegicus, UniProt P48548+P63251).
T1 construct: expressed in transfected cells
T1 sequence (P63251 1-501): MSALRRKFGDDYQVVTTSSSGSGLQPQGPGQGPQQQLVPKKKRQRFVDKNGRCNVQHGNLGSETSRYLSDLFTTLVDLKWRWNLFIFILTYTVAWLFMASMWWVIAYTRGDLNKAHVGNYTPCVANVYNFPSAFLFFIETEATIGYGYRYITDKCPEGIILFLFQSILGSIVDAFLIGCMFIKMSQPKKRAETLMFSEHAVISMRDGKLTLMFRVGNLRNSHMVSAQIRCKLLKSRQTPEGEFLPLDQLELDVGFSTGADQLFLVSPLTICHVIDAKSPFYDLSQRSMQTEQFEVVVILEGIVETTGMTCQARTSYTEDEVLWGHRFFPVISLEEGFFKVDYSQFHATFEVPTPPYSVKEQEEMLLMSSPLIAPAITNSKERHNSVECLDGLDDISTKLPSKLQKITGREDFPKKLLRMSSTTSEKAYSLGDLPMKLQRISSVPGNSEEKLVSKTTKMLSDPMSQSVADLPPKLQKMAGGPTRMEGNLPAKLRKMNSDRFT
T1 sequence (P48548 1-419): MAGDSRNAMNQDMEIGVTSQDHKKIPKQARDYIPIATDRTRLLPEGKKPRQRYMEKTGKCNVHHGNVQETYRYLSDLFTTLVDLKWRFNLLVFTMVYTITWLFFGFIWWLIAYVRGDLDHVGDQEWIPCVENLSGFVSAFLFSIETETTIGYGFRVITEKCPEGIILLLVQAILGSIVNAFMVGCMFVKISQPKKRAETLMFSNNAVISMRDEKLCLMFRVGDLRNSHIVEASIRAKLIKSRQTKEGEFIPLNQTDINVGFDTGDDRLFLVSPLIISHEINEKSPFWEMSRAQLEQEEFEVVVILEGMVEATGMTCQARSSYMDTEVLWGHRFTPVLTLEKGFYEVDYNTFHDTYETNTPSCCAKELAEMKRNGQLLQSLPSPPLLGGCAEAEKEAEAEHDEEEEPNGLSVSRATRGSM
As to the kind of experiment: Kir3.1/3.4 Electrophysiology Method (manual whole-cell patch clamp). The class given is cell-based. The note with it: Electrophysiology Method (TABLE 1). The method, boiled down:
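Manual whole-cell patch clamp on HEK293 cells stably expressing rat Kir3.1/3.4, with GTPγS in the pipette. Cells were held at −60 mV and stepped to +60 mV, then ramped to −140 mV every 10 s. Steady-state inhibition at −140 mV was measured after subtracting leak recorded in zero-K+ bath.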
(In general: In patch-clamp work, channel activity is measured electrically.)
In the case of `COCC1CCN(c2nc(N(CCO)CCN3CCCC3)nc3scc(-c4ccccc4)c23)CC1` [Example 185], the IC50 (commonly the midpoint of a concentration-inhibition curve) is below 500 nM.

Take `OCC1CC2CCC(C1)N2c1nc(N2CCOCC2)c2c(-c3ccccc3)csc2n1` (stereo not shown) [Example 165, [8-(4-morpholino-5-phenyl-thieno[2,3-d]pyrimidin-2-yl)-8-azabicyclo[3.2.1]octan-3-yl]methanol]: the half-inhibitory concentration (IC50) is 500 to 3000 nM.

For the compound `c1ccc(-c2csc3nc(C4CC4)nc(N4CCC(COCCN5CCCC5)CC4)c23)cc1` [Example 360], the IC50 is below 500 nM.

On to `c1nc(N2CCC(COCCN3CCCC3)CC2)c2c(-c3ccsc3)csc2n1` [Example 317], for which the IC50 is below 500 nM.

Regarding `c1ccc(-c2csc3ncnc(N4CCC(CNCc5ccccn5)CC4)c23)cc1` [Example 66, N-[[1-(5-phenylthieno[2,3-d]pyrimidin-4-yl)-4-piperidyl]methyl]-1-(2-pyridyl)methanamine], the IC50 is below 500 nM.

Consider `OCC(Cc1ccccc1)NCC1CCN(c2ncnc3scc(-c4ccccc4)c23)CC1` (stereo not shown) [Example 57, 3-phenyl-2-[[1-(5-phenylthieno[2,3-d]pyrimidin-4-yl)-4-piperidyl]methylamino]propan-1-ol], for which the IC50 is below 500 nM.

For `CC(C)c1csc2ncnc(N3CC4CC3CC4OCCN3CC[C@H](F)C3)c12` (stereo partly shown) [Example 294], the IC50 is below 500 nM.

In the case of `COCC1CCN(c2nc(CCN3CCCC3)nc3scc(-c4ccc(F)cc4)c23)CC1` [Example 184, 5-(4-fluorophenyl)-4-[4-(methoxymethyl)-1-piperidyl]-2-(2-pyrrolidin-1-ylethyl)thieno[2,3-d]pyrimidine], the IC50 was below 500 nM.

With `O=C1CCCN1c1sc2ncnc(N3CCC(COCCN4CCCC4)CC3)c2c1-c1ccccc1` [Example 163], the IC50 was below 500 nM.

`N#Cc1sc2ncnc(N3CCC(COCCN4CCCC4)CC3)c2c1-c1ccccc1` [Example 167, 5-phenyl-4-[4-(2-pyrrolidin-1-ylethoxymethyl)-1-piperidyl]thieno[2,3-d]pyrimidine-6-carbonitrile] came in with an IC50 below 500 nM.

In the case of `Cc1sc2nc(N3CCC(C(N)=O)C3)nc(N3CCC(CNCCC4CCCCN4C)CC3)c2c1C` (stereo not shown) [Example 240], the half-maximal inhibitory concentration (IC50) is below 500 nM.

Compound `CN(C)C1CCN(c2nc(NCCN3CCCC3)nc3scc(-c4ccccc4)c23)CC1` [Example 179] yielded an IC50 of 500 to 3000 nM.

Compound `FC(F)(F)c1nc(N2C3CCC2CC(NC2CCC2)C3)c2c(-c3ccccc3)csc2n1` (stereo not shown) [Example 359] returned an IC50 below 500 nM.

The compound `CN1CCC(NC2CCN(c3ncnc4scc(-c5ccccc5)c34)CC2)CC1` [Example 223] came in with an IC50 below 500 nM.

The compound “5-phenyl-thieno[2,3-d]pyrimidine-2-carbonitrile [Example 338]” yielded an IC50 below 500 nM.

Compound `NC(=O)C1CCCN1CC1CCN(c2ncnc3scc(-c4ccccc4)c23)CC1` (stereo not shown) [Example 247] gave an IC50 below 500 nM.

In turn, `CC1CN(CC2CCN(c3ncnc4scc(C5CCCCC5)c34)CC2)CC(C)O1` (stereo not shown) [Example 197] showed an IC50 below 500 nM.

Consider `Nc1nc(N2CCC(COCCN3CCCC3)CC2)c2c(-c3ccccc3)csc2n1` [Example 314, 5-phenyl-4-[4-(2-pyrrolidin-1-ylethoxymethyl)-1-piperidyl]thieno[2,3-d]pyrimidin-2-amine], for which the IC50 is below 500 nM.

`CN1CCC(N(C)CC2CCN(c3ncnc4scc(-c5ccccc5)c34)C2)C1` (stereo not shown) [Example 205] yielded an IC50 below 500 nM.

Regarding `CN(C)S(=O)(=O)c1ccc(-c2csc3ncnc(N4CCC(COCCN5CCCC5)CC4)c23)cc1` [Example 44, N,N-dimethyl-4-[4-[4-(2-pyrrolidin-1-ylethoxymethyl)-1-piperidyl]thieno[2,3-d]pyrimidin-5-yl]benzenesulfonamide], the half-inhibitory concentration (IC50) lay within 500 to 3000 nM.

As for `FC(F)(F)Oc1cccc(-c2csc3ncnc(N4CCC(COCCN5CCCC5)CC4)c23)c1` [Example 313], the IC50 is below 500 nM.

`OCCN(CCO)CC1CCN(c2ncnc3scc(-c4ccccc4)c23)CC1` [Example 186] had a 50% inhibitory concentration (IC50) of 500 to 3000 nM.

Take `CN(C)[C@@H]1CCN(CC2CCN(c3ncnc4scc(-c5ccccc5)c34)CC2)C1` [Example 81, (3R)-N,N-dimethyl-1-[[1-(5-phenylthieno[2,3-d]pyrimidin-4-yl)-4-piperidyl]methyl]pyrrolidin-3-amine]: the IC50 was below 500 nM.

Compound `CC(C)c1csc2ncnc(N3C4CCC3CC(COCCN3CCCC3)C4)c12` (stereo not shown) [Example 287] yielded an IC50 below 500 nM.

In turn, `CN(C)C1CCN(c2ncnc3scc(-c4ccccc4)c23)CC1` [Example 169] yielded an IC50 of 500 to 3000 nM.

In turn, `Cc1sc2ncnc(N3CCC(CNCCC4CCCCN4C)CC3)c2c1C` (stereo not shown) [Example 233] registered an IC50 below 500 nM.

The compound `CN(C)C1CCCN(CC2CCN(c3nc(NCCN4CCCC4)nc4scc(-c5ccccc5)c34)CC2)C1` (stereo not shown) [Example 117] displayed an IC50 below 500 nM.

On to `NC(=O)C1CN(c2nc(N3CCC(COCCN4CCCC4)CC3)nc3scc(-c4ccccc4)c23)CCO1` (stereo not shown) [Example 305], for which the IC50 is below 500 nM.

`CNC(=O)C1(NCC2CCN(c3ncnc4scc(-c5ccccc5)c34)CC2)CCC1` [Example 260] came in with an IC50 below 500 nM.

In turn, `CC1CCC(C)N1CC1CCN(c2ncnc3scc(-c4ccccc4)c23)CC1` (stereo not shown) [Example 98, 4-[4-[(2,5-dimethylpyrrolidin-1-yl)methyl]-1-piperidyl]-5-phenyl-thieno[2,3-d]pyrimidine] had a half-inhibitory concentration (IC50) of 500 to 3000 nM.

As for `c1ccc(-c2csc3ncnc(N4CCC(N5CCCCC5)C4)c23)cc1` (stereo not shown) [Example 181, d]pyrimidine], the IC50 fell in the range of 500 to 3000 nM.

Regarding `CN1CCCC1COCC1CCN(c2ncnc3scc(-c4ccccc4)c23)CC1` (stereo not shown) [Example 7, 4-[4-[(1-methylpyrrolidin-2-yl)methoxymethyl]-1-piperidyl]-5-phenyl-thieno[2,3-d]pyrimidine], the IC50 is below 500 nM.

In turn, `CC(C)c1c(C(=O)N(C)C)sc2ncnc(N3CCC(COCCN4CCCC4)CC3)c12` [Example 133] had a half-inhibitory concentration (IC50) of 500 to 3000 nM.

Compound `O=C(NCCN1CCCC1)C1CCN(c2ncnc3scc(-c4ccccc4)c23)CC1` [Example 267] yielded an IC50 of 500 to 3000 nM.

For the compound `COCC1CCN(c2nc(N3C4CCC3CC(O)C4)nc3scc(-c4ccccc4)c23)CC1` (stereo not shown) [Example 299], the IC50 fell in the range of 500 to 3000 nM.

Take `c1ccc(-c2csc3ncnc(N4CCC(CNCc5cccs5)CC4)c23)cc1` [Example 69, N-[[1-(5-phenylthieno[2,3-d]pyrimidin-4-yl)-4-piperidyl]methyl]-1-(2-thienyl)methanamine]: the IC50 was below 500 nM.

`c1ccc(-c2csc3ncnc(N4CCCC(OCCN5CCCC5)C4)c23)cc1` (stereo not shown) [Example 272] gave an IC50 below 500 nM.

As for `COc1ncccc1-c1csc2ncnc(N3C4CCC3CC(COCCN3CCCC3)C4)c12` (stereo not shown) [Example 363], the IC50 was below 500 nM.

Compound `CC(C)N1CCCC1CCN(C)CC1CCN(c2ncnc3scc(-c4ccccc4)c23)CC1` (stereo not shown) [Example 88, 2-(1-isopropylpyrrolidin-2-yl)-N-methyl-N-[[1-(5-phenylthieno[2,3-d]pyrimidin-4-yl)-4-piperidyl]methyl]ethanamine] yielded a half-inhibitory concentration (IC50) below 500 nM.

For “8-azabicyclo[3.2.1]octan-3-amine [Example 325]”, the concentration for half-maximal inhibition (IC50) is below 500 nM.

Turning to `CN1CCCC1CCNCC1CCN(c2ncc3c(-c4ccccc4)csc3n2)CC1` (stereo not shown) [Example 146], the half-maximal inhibitory concentration (IC50) was below 500 nM.

With `NC(=O)C1CCN(c2nc(N3CCC(COCCN4CCOCC4)CC3)c3c(-c4ccccc4)csc3n2)C1` (stereo not shown) [Example 258], the concentration for half-maximal inhibition (IC50) was below 500 nM.

`CCc1nc(N2CCC(N(C)C)CC2)c2c(-c3ccccc3)csc2n1` [Example 370] gave an IC50 below 500 nM.

In the case of `c1ccc(-c2csc3ncnc(N4CCC(COC5CCC5)CC4)c23)cc1` [Example 9, 4-[4-(cyclobutoxymethyl)-1-piperidyl]-5-phenyl-thieno[2,3-d]pyrimidine], the IC50 was below 500 nM.

Compound `CC(C)(CNCC1CCN(c2ncnc3scc(-c4ccccc4)c23)CC1)N1CCOCC1` [Example 59, 2-methyl-2-morpholino-N-[[1-(5-phenylthieno[2,3-d]pyrimidin-4-yl)-4-piperidyl]methyl]propan-1-amine] yielded an IC50 below 500 nM.

`F[C@H]1CCN(CCOC2CC3CC2CN3c2ncnc3scc(-c4ccccc4)c23)C1` (stereo partly shown) [Example 291] came in with an IC50 below 500 nM.

In turn, `OC1CCN(c2nc(NCCN3CCCC3)nc3scc(-c4ccccc4)c23)C1` (stereo not shown) [Example 189] yielded an IC50 of 500 to 3000 nM.

With `CN(C)CCN(C)CC1CCN(c2nc(N3CCC(C(N)=O)C3)nc3scc(-c4ccccc4)c23)CC1` (stereo not shown) [Example 225], the IC50 was below 500 nM.

For “5-phenyl-thieno[2,3-d]pyrimidine [Example 160]”, the IC50 was below 500 nM.
